Measurements as given in US20240000939A1, “METHODS OF PERSONALIZED PRECONDITIONING FOR CELL THERAPY” (priority 2021, published 2024).
“Also recorded” adds a separate entry of the source.

Legend:
[1] = Retrospective PRWCC analysis: toxicity (CRS, neurotoxicity/ICANS, infection, neutropenia, cause of death) after tisagenlecleucel; type: in vivo, human
Method: Study Design. A retrospective analysis of pediatric and young adult patients with R/R B-ALL as part of the Pediatric Real-World CAR Consortium (PRWCC; n=15 centers) was conducted. Two hundred (n=200) patients underwent collection/manufacture for planned standard-of-care CD19-specific CAR T cell therapy (tisagenlecleucel).
Outcomes of interest. The main outcomes of interest were overall survival (OS), cumulative incidence of relapse (CIR), and the cumulative incidence of a composite endpoint (relapse or loss of BCA). Other outcomes of interest were response rates, cytokine release syndrome (CRS), and immune effector cell associated neurotoxicity syndrome (ICANS). Complete remission (CR) was defined as ≤5% bone marrow blasts by morphology, absence of circulating lymphoblasts, and no evidence of extramedullary disease. MRD negativity was defined as <0.01% abnormal B cells assessed by flow cytometry. Relapse was defined as any (medullary or extramedullary) evidence of hematologic, cytogenetic, and/or molecular recurrence of primary disease. CD19-positive B cell recovery was defined as any detectable CD19-positive B cells ([…]) on a peripheral blood lymphocyte flow cytometry panel. Toxicity grading was described according to ASTCT (Lee et al., Biol Blood Marrow Transplant. 04 2019; 25 (4):625-638) for CRS and ICANS. Additionally, patients were further delineated based on their disease burden: high disease burden (≥5% lymphoblasts, CNS3 disease and/or isolated EM disease), and no (undetectable) or low disease burden (<5% lymphoblasts, ≤CNS2 disease, and/or no detectable EM disease) based off the previous PRWCC analysis (Schultz et al., Blood. 2020; 136 (Supplement 1):14-15). The fludarabine exposure, area under the curve (AUC), for each patient was calculated using a population PK model as previously described in Langenhorst et al., Clin Pharmacokinet. May 2019; 58 (5):627-637. The patient variables required to calculate an estimated fludarabine exposure include estimated GFR (using either the Cockroft-Gault or Schwartz equation depending on age), actual body weight, height, and dosage of fludarabine utilized where actual body weight and estimated GFR are the best predictors of fludarabine PK (Langenhorst et al., Clin Pharmacokinet. May 2019; 58 (5):627-637).
Statistical Analysis. For all analyses, tisagenlecleucel infusion date was considered time zero (0). The impact of different factors on the chance of response was assessed through Mann-Whitney-Wilcoxon test for continuous variables, Chi-squared or Fisher's exact test for categorical variables (univariable analysis), and logistic regression (multivariable analysis). OS for all treated patients was defined as the time from infusion to death from all causes. OS in responding patients was defined as time from day of response (day 28 from CAR infusion) to death from all causes. Patients alive were censored at their last follow-up date. Time-to-relapse was defined as the time from the date of infusion to the date of disease relapse, while time-to-composite endpoint was defined as the time from the date of infusion to the date of either disease relapse or loss of BCA, whichever came first. For both endpoints, patients alive without disease relapse (and loss of BCA for composite endpoint) were censored at their date of last follow-up. Death and allo-HCT without disease relapse (and loss of BCA) were considered competing events. […]

[2] = Estimated fludarabine exposure (AUC) calculated with a population PK model; parameters: species or system human
[3] = tested on: R/R B-cell ALL (B-ALL); experiment: Retrospective PRWCC analysis: response, relapse, composite endpoint (relapse or loss of BCA) and overall survival after tisagenlecleucel; type: in vivo, human; conditions: for HR, overall survival, patients with high pre-infusion disease burden: sub-optimal fludarabine exposure
[4] = multivariable, AUC <13.8 (sub-optimal) vs ≥13.8 mg*hr/L (ref), responding patients
[5] = univariable, AUC <13.8 vs ≥13.8 mg*hr/L (ref)
[6] = univariable, AUC <13.8 vs ≥13.8 mg*hr/L (ref), responding patients

In the case of `Nc1nc(F)nc2c1ncn2[C@@H]1O[C@H](CO)[C@@H](O)[C@@H]1O` [fludarabine, reference compound], the “patients who died from infection” value ([1]; all received suboptimal fludarabine) is reported as “four”, the “infection risk with increased fludarabine exposure (≥13.8 mg*hr/L)” value ([1]; in vivo) is reported as “no apparent increased infection risk” and the “association of optimal fludarabine exposure with toxicity (CRS, neurotoxicity)” value ([1]; neurotoxicity limited to ICANS graded patients) is reported as “not associated with increased CRS or neurotoxicity; also recorded: No increase in toxicity”. The “ICANS grade ≥3 (sICANS)” value ([1]; optimal flu (≥13.8 mg*hr/L), 5/67) was 7%, the “ICANS grade ≥3 (sICANS)” value ([1]; optimal flu (≥13.8 mg*hr/L), 5/67, listed as flu) was “(7%)” and the “ICANS grade ≥1” value ([1]; optimal flu (≥13.8 mg*hr/L), 15/67) was 22%. For the same molecule, the “ICANS grade ≥1” value ([1]; optimal flu (≥13.8 mg*hr/L), 15/67, listed as flu) was “(22%)”, the “CRS grade ≥3 (sCRS)” value ([1]; optimal flu (≥13.8 mg*hr/L), 18/102) was 18% and the “CRS grade ≥3 (sCRS)” value ([1]; optimal flu (≥13.8 mg*hr/L), 18/102, listed as flu) was “(18%)”. For the same molecule, the “infection post CAR T cell therapy” value ([1]; optimal fludarabine exposure, 36/102) was 35%, the “Grade 4 neutropenia” value ([1]; patients receiving optimal fludarabine) was 65% and the “Grade 4 neutropenia” value ([1]; patients receiving suboptimal fludarabine) was 67%. For the same molecule, the “ICANS grade ≥3 (sICANS)” value ([1]; sub-optimal flu (<13.8 mg*hr/L), 4/31) was 13%, the “ICANS grade ≥3 (sICANS)” value ([1]; sub-optimal flu (<13.8 mg*hr/L), 4/31, listed as flu) was “(13%)” and the “ICANS grade ≥1” value ([1]; sub-optimal flu (<13.8 mg*hr/L), 9/31) was 29%. For the same molecule, the “ICANS grade ≥1” value ([1]; sub-optimal flu (<13.8 mg*hr/L), 9/31, listed as flu) was “(29%)”, the “CRS grade ≥3 (sCRS)” value ([1]; sub-optimal flu (<13.8 mg*hr/L), 15/50) was 30% and the “CRS grade ≥3 (sCRS)” value ([1]; sub-optimal flu (<13.8 mg*hr/L), 15/50, listed as flu) was “(30%)”. The “infection post CAR T cell therapy” value ([1]; suboptimal fludarabine exposure, 21/50) was 42%, the “fludarabine AUC threshold of interest for disease relapse” value ([2]; Example 1, exposure analyzed as continuous variable (FIG. 1)) was 13800 ng·h/mL and the “optimal fludarabine exposure (AUC)” value ([2]; Example 2, where hazard ratio curve for CIR crosses HR=1) was ≥ 13800 ng·h/mL. For the same molecule, the “odds ratio of response by cumulative Flu AUC (mg*hr/L)” value ([3]; multivariable analysis, AUC as continuous variable) was 0.81, the “HR, overall survival in responding patients” value ([3]; multivariable, AUC <13.8 (sub-optimal) vs ≥13.8 mg*hr/L (ref)) was 1.97 and the “HR, overall survival in all treated patients” value ([3]; multivariable, AUC <13.8 (sub-optimal) vs ≥13.8 mg*hr/L (ref), entire cohort) was 1.53. For the same molecule, the “HR, cumulative incidence of composite endpoint (relapse or loss of B-cell aplasia)” value [3, 4] was 1.96, the “HR, cumulative incidence of relapse” value [3, 4] was 2.45 and the “HR, overall survival, patients with high pre-infusion disease burden” value ([3]; all treated patients) was 2.27. The “HR, overall survival, patients with high pre-infusion disease burden” value ([3]; responding patients only) was 3.50, the “HR, overall survival in all treated patients” value [3, 5] was 1.51 and the “HR, overall survival in responding patients” value [3, 5] was 2.25. The “HR, cumulative incidence of composite endpoint (relapse or loss of B-cell aplasia)” value [3, 6] was 1.77 and the “HR, cumulative incidence of relapse” value [3, 6] was 1.95.

In the case of tisagenlecleucel, the “severe neurotoxicity (grade 3 or higher)” value ([1]; all patients, 12/152) is reported as 8%, the “severe CRS (sCRS; grade 3 or higher)” value ([1]; all patients, 33/152) is reported as 22% and the neurotoxicity ([1]; all patients, 36/152) is reported as 24%. The “infection post CAR T cell therapy” value ([1]; all patients, 57/152) was 38%, the “Grade 4 neutropenia” value ([1]; all patients, 97/148) was 66% and the CRS ([1]; all patients, 97/152) was 64%. For the same molecule, the “CRS grade 1” value ([1]; n=152) was “(24%)”, the “CRS grade 2” value ([1]; n=152) was “(18%)” and the “CRS grade 3” value ([1]; n=152) was “(11%)”. The “CRS grade 4” value ([1]; n=152) was “(10%)”, the “CRS grade 5” value ([1]; n=152) was “(1%)” and the CRS grade none ([1]; n=152) was “(36%)”. The “Neurotoxicity grade 1” value ([1]; n=152) was “(11%)”, the “Neurotoxicity grade 2” value ([1]; n=152) was “(5%)” and the “Neurotoxicity grade 3” value ([1]; n=152) was “(5%)”. For the same molecule, the “Neurotoxicity grade 4” value ([1]; n=152) was “(2%)”, the “Neurotoxicity grade 5” value ([1]; n=152) was “(1%)” and the Neurotoxicity grade none ([1]; n=152) was “(76%)”. The “Cause of death: ARDS/cardiac arrest” value ([1]; share of deaths) was “(2%)”, the “Cause of death: CRS” value ([1]; share of deaths) was “(2%)” and the “Cause of death: Infection” value ([1]; share of deaths) was “(10%)”. For the same molecule, the “Cause of death: Leukemia” value ([1]; share of deaths) was “(74%)”, the “Cause of death: Neurotoxicity” value ([1]; share of deaths) was “(2%)” and the “Cause of death: Transplant related” value ([1]; share of deaths) was “(7%)”. The “12-month OS” value ([3]; Example 1) was 75%, the “12-month cumulative incidence of relapse in responders” value ([3]; Example 1) was 39.2% and the “12-month CIR in responding patients” value ([3]; Example 2) was 36.4%. The “12-month OS” value ([3]; Example 2, entire cohort) was 75.1%, the “24-month OS” value ([3]; Example 2, entire cohort) was 56.5% and the “cumulative incidence of composite endpoint (relapse or loss of BCA)” value ([3]; at 12-months, responding patients) was 55.2%. For the same molecule, the “loss of BCA post CAR” value ([3]; n=152) was “(34%)”, the “relapsed post CAR” value ([3]; n=152) was “(36%)” and the CD19-negative relapse ([3]; share of relapses post CAR) was “(45%)”. For the same molecule, the CD19-positive relapse ([3]; share of relapses post CAR) was “(55%)”.
